Laboratory results as given in patent US7247650B2, “Macrolides and methods for producing same” (Wyeth, priority 2004, dated 2007).

Columns and labels:
Assay type in all cases: cell-based, rat
[1] = system: cultured dorsal root ganglia; assay: Neurite outgrowth (total neurite length per cell) in cultured dorsal root ganglia; design: unit of the concentration uncertain; conditions: 72 hours
Experimental: Dissociated dorsal root ganglia cultures were prepared as previously described [A. Wood et al., “Stimulation of neurite outgrowth by immunophilin ligands: quantitative analysis by Cellomics Array scan” Society for Neuroscience (2004), abstract 104.3] Briefly, postnatal day 3–5 rat pups were euthanized. The spinal columns were removed and individual dorsal root ganglia (DRG) were dissected out. Dissected DRG were pooled together and transferred to an enzymatic dissociation medium containing papain. After 60 minutes, the tissue was mechanically triturated with a fire-polished glass Pasteur pipette. Single-cell suspensions in complete media were seeded on poly-L-ornithine and laminin coated 96-well plates. After 24 hours, cultures were treated with various concentrations of the compound of formula I for 72 hours. The cultures were then fixed and stained with an anti-tubulin primary antibody (TUJ-1) and a fluorescent-tagged secondary antibody. Neurite outgrowth was determined by using the Enhanced Neurite Outgrowth (ENO) algorithm with the Cellomics ArrayScan and expressed as total neurite length per cell.

[2] = system: cultured cortical neurons; assay: Neurofilament content in cultured cortical neurons
Experimental: Dissociated cortical neuron cultures were prepared as previously described [Pong et al., Exp Neurol. 2001 September; 171(1):84–97 (2001)]. Briefly, embryonic day 15 rat fetuses were collected and dissected in ice-cold PBS. Dissected cortices were pooled together and transferred to an enzymatic dissociation medium containing papain. After 30 min, the tissue was mechanically triturated with a fire-polished glass Pasteur pipette. Single-cell suspensions in complete media were seeded on poly-L-ornithine and laminin coated 96-well plates. 24 hours later, cultures were treated with various concentrations of compound of formula (I) for 72 hours. The cultures were then fixed and stained with a neurofilament primary antibody and a peroxidase-tagged secondary antibody. A peroxidase substrate (K-Blue Max) was added and the colorimetric change was measure on a colorimetric plate reader.

[3] = system: cultured dopaminergic neurons; assay: High-affinity 3H-dopamine uptake after MPP+ induced toxicity
Experimental: Mesencephalic dopaminergic neuron cultures were prepared as previously described in Pong et al., J Neurochem. 69: 986–994 (1997). Embryonic day 15 (E15) rat fetuses were collected and dissected in ice-cold phosphate-buffered saline (PBS). The ventral piece of tissue compromising the mesencephalic dopaminergic region was dissected out. Dissected pieces of tissue were pooled together and transferred to an enzymatic dissociation medium containing 20 IU/ml papain in Earle's balanced salt solution (Worthington Biochemical, Freehold, N.J., U.S.A.) and incubated for 60 minutes at 37° C. After enzymatic dissociation, the papain solution was aspirated and the tissue mechanically triturated with a fire-polished glass Pasteur pipette in complete medium [equal volumes of minimum essential medium (MEM) and F-12 nutrient mixture (Gibco BRL) supplemented with 0.1 mg/ml apotransferrin and 2.5 μg/ml insulin] containing 2,000 IU/ml DNase and 10 mg/ml ovomucoid protease inhibitor.
For dopamine uptake experiments, single-cell suspensions in complete media were seeded on poly-L-ornithine and laminin coated 24-well plates. The cultures were maintained for seven days prior to experimentation. Cultures were pretreated with various concentrations of the compound of formula (I) (washed with PBS and diluted with media to concentrations of 1 nM to 1000 nM) for 24 hours, then exposed to 10 μM the neurotoxin 1-methyl-4-phenylpyridinium (MPP^+) for 1 hour to assess the neuroprotective effect of the compound of formula (I) in cell culture. Following the 1 hour incubation, media was exchanged three times and fresh compound was added for an additional 48 hours.
More particularly, after 48 hours growth of mesencephalic dopaminergic neuron cultures following MPP^+ exposure, high-affinity ^3H-dopamine uptake was performed using a modified method described by Prochiantz et al., Nature 293: 570–572 (1981). Cultures were washed with pre-warmed phosphate-buffered saline (PBS) containing 5.6 mM glucose and 1 mM ascorbic acid. Cultures were then incubated for 15 minutes at 37° C. with 50 nM ^3H-dopamine (31 Ci/mmol, Du Pont-NEN, Wilmington, Del., U.S.A.). The cultures were washed twice with buffer and lysed with 0.5 N NaOH. The lysate was transferred to a scintillation vial containing Ultima Gold scintillation cocktail and radioactivity was determined with a liquid scintillation counter. Alternatively, culture lysates can be washed twice with buffer, incubated for 2 hours at room temperature with Optiphase Supermix scintillation cocktail (Wallac Scintillation Products, Gaithersburg, Md., USA), and radioactivity measured with a liquid scintillation counter.

[4] = system: cultured cortical neurons; assay: Neurite outgrowth (total neurite length per cell) in cultured cortical neurons; design: unit of the concentration uncertain; conditions: 72 hours
Experimental: Dissociated cortical neuron cultures were prepared as previously described (Pong et al., cited above, 2001). Briefly, embryonic day 15 rat fetuses were collected and dissected in ice-cold PBS. Dissected cortices were pooled together and transferred to an enzymatic dissociation medium containing papain. After 30 minutes, the tissue was mechanically triturated with a fire-polished glass Pasteur pipette. Single-cell suspensions in complete media were seeded on poly-L-ornithine and laminin coated 96-well plates. After 24 hours, cultures were treated with various concentrations of the compound of formula I for 72 hours. The cultures were then fixed and stained with an anti-tubulin primary antibody (TUJ-1) and a fluorescent-tagged secondary antibody. Neurite outgrowth was determined by using the Enhanced Neurite Outgrowth (ENO) algorithm with the Cellomics ArrayScan and expressed as total neurite length per cell.

CC/C1=C\CC(/C(C)=C/C(C)C(C)O)OC(=O)C2CCCN2C(=O)C(=O)C2(O)OC(CCC2C)CC(O)C(C)C(O)CC(O)CC(O)/C(C)=C/C(C)CC(C)C1O (stereo not shown) [Compound (I), prolylmeridamycin]
Total Neurite Length (% Above Control) ([1]; 10 nM): 2% Above Control | Total Neurite Length (% Above Control) ([1]; 100 nM): 7% Above Control | Total Neurite Length (% Above Control) ([1]; 1 (unit uncertain)): 21% Above Control | Total Neurite Length (% Above Control) ([1]; 10 (unit uncertain)): 44% Above Control | NEUROFILAMENT CONTENT (FOLD-INCREASE ABOVE UNTREATED CONTROL) ([2]; 10 nM, 72 hours): 1.54 FOLD-INCREASE ABOVE UNTREATED CONTROL | NEUROFILAMENT CONTENT (FOLD-INCREASE ABOVE UNTREATED CONTROL) ([2]; 100 nM, 72 hours): 2.22 FOLD-INCREASE ABOVE UNTREATED CONTROL | NEUROFILAMENT CONTENT (FOLD-INCREASE ABOVE UNTREATED CONTROL) ([2]; 1 μM, 72 hours): 2.34 FOLD-INCREASE ABOVE UNTREATED CONTROL | NEUROFILAMENT CONTENT (FOLD-INCREASE ABOVE UNTREATED CONTROL) ([2]; 10 μM, 72 hours): 2.26 FOLD-INCREASE ABOVE UNTREATED CONTROL | EC50 ([2]; Rattus norvegicus, Cortical neurone, 72 hours, neurofilament content, read-out: EC50, increased neuronal survival in cultured cortical neurons): 21 nM | potency compared with meridamycin ([2]; similar study with meridamycin): more potent | 3H-DOPAMINE UPTAKE (% UNTREATED CONTROL) ([3]; 1 nM compound, 24 h pretreatment, 10 μM MPP+ 1 hour, 48 h after): 45% UNTREATED CONTROL | 3H-DOPAMINE UPTAKE (% UNTREATED CONTROL) ([3]; 10 nM compound, 24 h pretreatment, 10 μM MPP+ 1 hour, 48 h after): 52% UNTREATED CONTROL | 3H-DOPAMINE UPTAKE (% UNTREATED CONTROL) ([3]; 100 nM compound, 24 h pretreatment, 10 μM MPP+ 1 hour, 48 h after): 61% UNTREATED CONTROL | 3H-DOPAMINE UPTAKE (% UNTREATED CONTROL) ([3]; 1000 nM compound, 24 h pretreatment, 10 μM MPP+ 1 hour, 48 h after): 72% UNTREATED CONTROL | EC50 ([3]; Rattus norvegicus, Neuron, relative to maximum protection (84% uptake) afforded by 10 ng/mL GDNF, read-out: EC50, neuroprotection against MPP+-induced neurotoxicity): 110 nM | potency compared with meridamycin ([3]; similar study with meridamycin): more potent | Total Neurite Length (% Above Control) ([4]; 10 nM): 30% Above Control | Total Neurite Length (% Above Control) ([4]; 100 nM): 51% Above Control | Total Neurite Length (% Above Control) ([4]; 1 (unit uncertain)): 120% Above Control | Total Neurite Length (% Above Control) ([4]; 10 (unit uncertain)): 178% Above Control

C[n+]1ccc(-c2ccccc2)cc1 [MPP^+, 1-methyl-4-phenylpyridinium, reference compound]
3H-DOPAMINE UPTAKE (% UNTREATED CONTROL) ([3]; 10 μM MPP+ for 1 hour, no test compound): 40% UNTREATED CONTROL

B1: glial cell line-derived neurotrophic factor (protein, UniProt P39905 78-211, looked up)
Glial cell line-derived …: SPDKQMAVLPRRERNRQAAAANPENSRGKGRRGQRGKNRGCVLTAIHLNVTDLGLGYETKEELIFRYCSGSCDAAETTYDKILKNLSRNRRLVSDKVGQACCRPIAFDDDLSFLDDNLVYHILRKHSAKRCGCI
notes: glial cell line-derived neurotrophic factor, gives maximum protection in the dopamine uptake assay
maximum protection (% uptake) ([3]; 10 ng/mL GDNF, MPP+-induced neurotoxicity): 84 % uptake
